Assays:
EP4R [1] = target: T1, EP4R (Homo sapiens, UniProt P35408); assay: biochemical; assay type: binding; details: […], read-out: % displacement of 3HPGE2 at 10 µM, 10 µM compound vs 10 nM 3H-PGE2
T1 construct: Tango fusion cassette (only 'tango' is printed); expressed in transfected cells; host or cells: HTLA cells (tTA-dependent luciferase reporter, β-arrestin2-TEV fusion)

EP4R [2] = target: T1, EP4R; assay: PRESTO-Tango β-arrestin2 recruitment assay; assay type: cell-based; details: for Ki: PRESTO-Tango Ki* (nM)
[3] = PRESTO-Tango -logIC50, antagonist mode, EC80 of PGE2
[4] = PRESTO-Tango IC50 (nM), antagonist mode, EC80 of PGE2
[5] = calculated using the Cheng Prusoff equation

T1 sequence (P35408 whole entry, the tested form may be a part): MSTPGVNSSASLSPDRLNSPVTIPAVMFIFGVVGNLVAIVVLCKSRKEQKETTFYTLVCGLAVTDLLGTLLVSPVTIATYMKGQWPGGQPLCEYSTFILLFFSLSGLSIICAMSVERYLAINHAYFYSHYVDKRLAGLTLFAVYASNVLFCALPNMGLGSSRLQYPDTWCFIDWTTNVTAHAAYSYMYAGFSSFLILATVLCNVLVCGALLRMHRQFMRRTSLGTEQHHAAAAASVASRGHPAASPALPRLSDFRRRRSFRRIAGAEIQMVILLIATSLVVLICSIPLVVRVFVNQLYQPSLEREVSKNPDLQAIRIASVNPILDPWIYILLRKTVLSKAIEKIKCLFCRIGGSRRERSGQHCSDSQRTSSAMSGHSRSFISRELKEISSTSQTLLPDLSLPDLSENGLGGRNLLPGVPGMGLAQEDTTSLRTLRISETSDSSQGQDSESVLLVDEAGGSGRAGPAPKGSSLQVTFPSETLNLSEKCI

Row | SMILES | inhibition at 10 µM (EP4R [1]) [%] | IC50 (EP4R [2]; [4]) [nM] | further results
1 | CC1(C(=O)O)CC(NS(=O)(=O)c2cc3cc(Cl)ccc3s2)CCO1 (centres unmarked) [Compound 38, CC1(CC(CCO1)NS(=O)(=O)C2=CC=3C=C(Cl)C=CC3S2)C(=O)O] | -5.2 | – | –
2 | O=C(O)Cc1ccc(C=C2C(=O)N3CCCc4cccc2c43)cc1 [Compound 42, OC(=O)CC=1C=CC(C=C2C(=O)N3CCCC=4C=CC=C2C34)=CC1] | -3.2 | – | –
3 | CN(C(=O)CSc1nnc(S)s1)c1ccc2ccccc2c1 [Compound 36, CN(C(=O)CSC1=NN=C(S)S1)C=2C=CC=3C=CC=CC3C2] | -5.8 | – | –
4 | O=C(O)CCC1CCCN(C(=O)c2nn(-c3ccccc3)c3c2CCC3)C1 (centres unmarked) [Compound 61, OC(=O)CCC1CCCN(C1)C(=O)C2=NN(C=3CCCC23)C=4C=CC=CC4] | 15.1 | – | –
5 | CC(NC(=O)C1CC2(CC(C(=O)O)C2)C1)c1ccc(C(F)(F)F)s1 (centres unmarked) [Compound 34, CC(NC(=O)C1CC2(CC(C2)C(=O)O)C1)C3=CC=C(S3)C(F)(F)F] | -6.1 | – | –
6 | CC(CN(C)c1nc(C(F)(F)F)cs1)C(=O)O (centres unmarked) [Compound 9, CC(CN(C)C1=NC(=CS1)C(F)(F)F)C(=O)O] | -18.1 | – | –
7 | CC(C)(Oc1ccc(F)cc1)C(=O)N1CC(CC(=O)O)c2ccccc21 (centres unmarked) [Compound 60, CC(C)(OC=1C=CC(F)=CC1)C(=O)N2CC(CC(=O)O)C=3C=CC=CC23] | 13.8 | – | –
8 | Cc1cccc2sc(N(C)CC(C)c3nnn[nH]3)nc12 (centres unmarked) [Compound 47, CC(CN(C)C1=NC=2C(C)=CC=CC2S1)C3=NN=NN3] | -1.1 | – | –
9 | O=C(O)C1CC2(CC(NS(=O)(=O)C=Cc3ccc(F)cc3)CCS2)C1 (centres unmarked) [Compound 57, OC(=O)C1CC2(C1)CC(CCS2)NS(=O)(=O)C=CC=3C=CC(F)=CC3] | 9 | – | –
10 | O=C(NC1CC(C(=O)O)C1)N[C@@H]1CCC[C@@H]1n1cccn1 (some centres unmarked) [Compound 4, OC(=O)C1CC(C1)NC(=O)N[C@@H]2CCC[C@@H]2N3C=CC=N3] | -21.9 | – | –
11 | Cc1ccc(-n2nc(C(=O)Nc3ccc(CC(=O)O)cc3)c3c2CCC3)cc1 [Compound 64, CC=1C=CC(=CC1)N2N=C(C(=O)NC=3C=CC(CC(=O)O)=CC3)C=4CCCC42] | 20 | – | –
12 | Cc1c(C(=O)N(C)c2nnn[nH]2)cnn1-c1ccc(Cl)cc1 [Compound 69, CN(C(=O)C=1C=NN(C1C)C=2C=CC(Cl)=CC2)C3=NN=NN3] | 37.7 | – | –
13 | O=C(O)c1cc(NS(=O)(=O)c2ccc(Br)cc2F)ccc1O [Compound 53, OC(=O)C=1C=C(NS(=O)(=O)C=2C=CC(Br)=CC2F)C=CC1O] | 2.8 | – | –
14 | O=C(Nc1cccc(-n2nn[nH]c2=O)c1)C1(c2ccccn2)CC1 [Compound 32, O=C(NC=1C=CC=C(C1)N2N=NNC2=O)C3(CC3)C=4C=CC=CN4] | -8.5 | – | –
15 | CC1CC(C(=O)O)CN(C(=O)C2(c3cccc(C(F)(F)F)c3)CC2)C1 (centres unmarked) [Compound 3, CC1CC(CN(C1)C(=O)C2(CC2)C=3C=CC=C(C3)C(F)(F)F)C(=O)O] | -22.5 | – | –
16 | CCSc1cc(C(=O)O)ccc1NC(=O)c1cnn(-c2ccccc2F)c1 [Compound 59, CCSC=1C=C(C=CC1NC(=O)C=2C=NN(C2)C=3C=CC=CC3F)C(=O)O] | 11.6 | – | –
17 | O=C(NCc1cc(Cl)cc2c1OCC2)c1cc2sc(C(=O)O)cc2[nH]1 [Compound 13, OC(=O)C1=CC=2NC(=CC2S1)C(=O)NCC=3C=C(Cl)C=C4CCOC43] | -16.5 | – | –
18 | Cc1cccc(C2(C(=O)NC3CCSC4(C3)CC(C(=O)O)C4)CC2)c1 (centres unmarked) [Compound 45, CC=1C=CC=C(C1)C2(CC2)C(=O)NC3CCSC4(CC(C4)C(=O)O)C3] | -1.8 | – | –
19 | O=C(O)C1(n2cc(Cc3ccc(F)cc3F)cn2)CCC(c2ccccc2)CC1 (centres unmarked) [Compound 1, OC(=O)C1(CCC(CC1)C=2C=CC=CC2)N3C=C(CC=4C=CC(F)=CC4F)C=N3] | -28.7 | – | –
20 | CC(CN(C(=O)c1cc2c(C(F)F)nn(C)c2s1)C1CC1)C(=O)O (centres unmarked) [Compound 24, CC(CN(C1CC1)C(=O)C2=CC=3C(=NN(C)C3S2)C(F)F)C(=O)O] | -10.7 | – | –
21 | COC(C(=O)N(C1CC1)C(C)C(=O)O)c1cnn(C)c1 (centres unmarked) [Compound 25, COC(C(=O)N(C(C)C(=O)O)C1CC1)C=2C=NN(C)C2] | -10.6 | – | –
22 | Cc1ccc(-n2c(SCc3nnn[nH]3)nc3ccccc3c2=O)cc1 [Compound 11, CC=1C=CC(=CC1)N2C(SCC3=NN=NN3)=NC=4C=CC=CC4C2=O] | -17.6 | – | –
23 | c1ccc(-c2nc(SCc3nnn[nH]3)oc2-c2ccccc2)cc1 [Compound 20, C(SC1=NC(=C(O1)C=2C=CC=CC2)C=3C=CC=CC3)C4=NN=NN4] | -12.7 | – | –
24 | O=C(O)CCc1cccc(NC(=O)c2c(C(F)(F)F)nc3n2CCCC3)c1 [Compound 5, OC(=O)CCC=1C=CC=C(NC(=O)C2=C(N=C3CCCCN23)C(F)(F)F)C1] | -19 | – | –

Row | SMILES | inhibition at 10 µM (EP4R [1]) [%] | IC50 (EP4R [2]; [4]) [nM] | further results
25 | O=C(O)CSc1nc2cc(Cl)ccc2n1Cc1ccccc1 [Compound 39, OC(=O)CSC1=NC=2C=C(Cl)C=CC2N1CC=3C=CC=CC3] | -4.9 | – | –
26 | CN(C(=O)c1nc(C2CC2)n(-c2ccccc2Cl)n1)c1nnn[nH]1 [Compound 46, CN(C(=O)C=1N=C(C2CC2)N(N1)C=3C=CC=CC3Cl)C4=NN=NN4] | -1.5 | – | –
27 | CCc1ccc(C(=O)Nc2cccc(-c3nnn[nH]3)c2)c(C)n1 [Compound 63, CCC=1C=CC(C(=O)NC=2C=CC=C(C2)C3=NN=NN3)=C(C)N1] | 19.3 | – | –
28 | O=C(O)CCC(Cc1ccccc1)NS(=O)(=O)c1csc2ccccc12 (centres unmarked) [Compound 15, OC(=O)CCC(CC=1C=CC=CC1)NS(=O)(=O)C2=CSC=3C=CC=CC23] | -14.5 | – | –
29 | CC(CN(Cc1ccccc1)C(=O)COc1ccc(Cl)c2cccnc12)C(=O)O (centres unmarked) [Compound 35, CC(CN(CC=1C=CC=CC1)C(=O)COC=2C=CC(Cl)=C3C=CC=NC23)C(=O)O] | -5.8 | – | –
30 | Cn1nc(-c2ccccc2)cc1CNC(=O)NC1CCC(C(=O)O)CC1 (centres unmarked) [Compound 48, CN1N=C(C=C1CNC(=O)NC2CCC(CC2)C(=O)O)C=3C=CC=CC3] | -0.1 | – | –
31 | COc1ccc(-n2c(C)cc(C(=O)NC3CCCC(C(=O)O)CC3)c2C)cc1 (centres unmarked) [Compound 124, COC=1C=CC(=CC1)N2C(C)=CC(C(=O)NC3CCCC(CC3)C(=O)O)=C2C] | – | > 10000 | IC50 (EP4R [2]; [3]): 53700 nM
32 | COc1cccc(-n2c(C)cc(C(=O)NC3CCCC(C(=O)O)CC3)c2C)c1 (centres unmarked) [Compound 117, COC=1C=CC=C(C1)N2C(C)=CC(C(=O)NC3CCCC(CC3)C(=O)O)=C2C] | – | > 10000 | IC50 (EP4R [2]; [3]): 22900 nM
33 | Cc1nc2ncnn2c(NC2CC3(CCC(C(=O)O)CC3)C2)c1C (centres unmarked) [Compound 94, CC1=NC2=NC=NN2C(NC3CC4(C3)CCC(CC4)C(=O)O)=C1C] | – | – | IC50 (EP4R [2]; PRESTO-Tango -logIC50): 12000 nM; IC50 (EP4R [2]; PRESTO-Tango IC50 (nM)): > 10000 nM
34 | Cc1cc(C(=O)N(C)C2CCCC(C(=O)O)CC2)c(C)n1-c1ccccc1 (centres unmarked) [Compound 132, CN(C1CCCC(CC1)C(=O)O)C(=O)C=2C=C(C)N(C2C)C=3C=CC=CC3] | – | > 10000 | IC50 (EP4R [2]; [3]): 23400 nM
35 | Cc1sc(C(=O)NC2CCCC(C(=O)O)CC2)cc1-c1ccc(F)cc1 (centres unmarked) [Compound 108, CC=1SC(=CC1C=2C=CC(F)=CC2)C(=O)NC3CCCC(CC3)C(=O)O] | – | > 10000 | IC50 (EP4R [2]; [3]): 501000 nM
36 | Cc1cc(C(=O)N[C@@H]2CC[C@@H](C(=O)O)CCC2(F)F)c(C)n1-c1cccc(F)c1 [Compound 128, CC1=CC(C(=O)N[C@@H]2CC[C@H](CCC2(F)F)C(=O)O)=C(C)N1C=3C=CC=C(F)C3] | – | > 10000 | IC50 (EP4R [2]; [3]): 18200 nM
37 | Cc1cc(C(=O)N[C@@H]2CC[C@@H](C(=O)O)CCC2(F)F)c(C)n1-c1ccccc1F [Compound 113, CC1=CC(C(=O)N[C@@H]2CC[C@H](CCC2(F)F)C(=O)O)=C(C)N1C=3C=CC=CC3F] | – | – | IC50 (EP4R [2]; PRESTO-Tango -logIC50): 11000 nM; IC50 (EP4R [2]; PRESTO-Tango IC50 (nM)): > 10000 nM
38 | Cc1csc2ncnc(NC3CC4(CCC(C(=O)O)CC4)C3)c12 (centres unmarked) [Compound 86, CC1=CSC=2N=CN=C(NC3CC4(C3)CCC(CC4)C(=O)O)C12] | – | 7960 | Ki (EP4R [2]; [5]): 1590 nM
39 | Cc1nc(NC2CC3(CCC(C(=O)O)CC3)C2)c2cc(-c3ccccc3)sc2n1 (centres unmarked) [Compound 93, CC=1N=C(NC2CC3(C2)CCC(CC3)C(=O)O)C=4C=C(SC4N1)C=5C=CC=CC5] | – | 7350 | Ki (EP4R [2]; [5]): 1470 nM
40 | O=C(O)C1CCC2(CC1)CC(Nc1ncnc3c1oc1ccccc13)C2 (centres unmarked) [Compound 84, OC(=O)C1CCC2(CC(C2)NC=3N=CN=C4C=5C=CC=CC5OC34)CC1] | – | 5730 | Ki (EP4R [2]): 1150 nM
41 | CC(C)c1ccc2ncnc(NC3CC4(CCC(C(=O)O)CC4)C3)c2c1 (centres unmarked) [Compound 87, CC(C)C=1C=CC=2N=CN=C(NC3CC4(C3)CCC(CC4)C(=O)O)C2C1] | – | > 10000 | IC50 (EP4R [2]; [3]): 19500 nM
42 | Cc1cc(C(=O)NC2CCCC(C(=O)O)CC2)c(C)n1-c1ccc(C(C)C)cc1 (centres unmarked) [Compound 122, CC(C)C=1C=CC(=CC1)N2C(C)=CC(C(=O)NC3CCCC(CC3)C(=O)O)=C2C] | – | 1150 | Ki (EP4R [2]; [5]): 229 nM
43 | O=C(NC1CC2(CCC(C(=O)O)CC2)C1)c1csc(C2CCCCC2)c1 (centres unmarked) [Compound 109, OC(=O)C1CCC2(CC(C2)NC(=O)C3=CSC(=C3)C4CCCCC4)CC1] | – | > 10000 | IC50 (EP4R [2]; [3]): 10200 nM
44 | O=C(N[C@@H]1CC[C@@H](C(=O)O)CCC1(F)F)c1nn(-c2ccccc2F)c2c1CCC2 [Compound 118, OC(=O)[C@@H]1CC[C@@H](NC(=O)C2=NN(C=3CCCC23)C=4C=CC=CC4F)C(F)(F)CC1] | – | 3790 | Ki (EP4R [2]): 757 nM
45 | CC1CCc2c(sc3ncnc(NC4CC5(CCC(C(=O)O)CC5)C4)c23)C1 (centres unmarked) [Compound 92, CC1CCC2=C(C1)SC=3N=CN=C(NC4CC5(C4)CCC(CC5)C(=O)O)C23] | – | 806 | Ki (EP4R [2]; [5]): 161 nM
46 | O=C(N[C@@H]1CC[C@@H](C(=O)O)CCC1(F)F)c1nn(-c2ccc(F)cc2)c2c1CCC2 [Compound 127, OC(=O)[C@@H]1CC[C@@H](NC(=O)C2=NN(C=3CCCC23)C=4C=CC(F)=CC4)C(F)(F)CC1] | – | 2170 | Ki (EP4R [2]; [5]): 434 nM
47 | O=C(O)C[C@@H]1CC[C@H](NC(=O)c2csc(C3CCCCC3)c2)C1 [Compound 100, OC(=O)C[C@@H]1CC[C@@H](C1)NC(=O)C2=CSC(=C2)C3CCCCC3] | – | 1880 | IC50 (EP4R [2]; [3]): 1820 nM; Ki (EP4R [2]): 376 nM

Source: PMC10700596 (Nature Communications, 2023)
